In patent US12692241B2, “Substituted triazine compound” (Nico Therapeutics, Inc., priority 2021, dated 2026):
Counter-ions that a name gives are not always drawn. Like-named read-outs stand apart in the source and are kept apart here. Each block holds one compound with its values, some of them ahead of it.

Columns and labels:
[1] = system: IL-1β p17 in cerebrospinal fluid; assay: Rat central nervous system IL-1β production test; type: in vivo; conditions: male Wistar rats, oral, LPS and BzATP in cisterna magna
Description: Rat Central Nervous System IL-1β Production Test
Male Wistar rats of 10-14 weeks old were administered with 12.5 μg/5 μL LPS (SIGMA, L2880) in the cisterna magna under isoflurane anesthesia. Two hours later, a test compound was orally administered. Further one hour later, 50 μg/5 μL BzATP (2′(3′)—O-(4-benzoylbenzoyl)adenosine 5′-triphosphate triethylammonium salt, SIGMA, B6396) was administered in the cisterna magna. Thirty minutes later, the cerebrospinal fluid was collected. The cerebrospinal fluid was subjected to Western blotting using an anti-IL-1β antibody (Millipore, AB1832P) to measure IL-1β p17, and then, the suppression rate thereof relative to the solvent-administered group was calculated.
In the Table, Dose refers to a dosage amount of each test compound, and Ex59, Ex75, Ex131, Ex132 and Ex164 represent Example 59, Example 75, Example 131, Example 132 and Example 164, respectively. It was confirmed that the compounds have inhibitory effects on IL-1β production.

[2] = system: TNF-α production in THP-1 cells (LPS); assay: TNF-α production inhibitory test; type: cell-based; conditions: Homo sapiens; PMA-differentiated THP-1 cells, LPS 50 ng/mL, 2 hours, ELISA
Description: TNF-α Production Inhibitory Test
To THP-1 cells, 50 ng/mL PMA (phorbol myristate acetate, SIGMA, P1585) was added and then the cells were cultured at 37° C. for 2 days. The culture medium was exchanged with serum-free RPMI-1640 medium, and a compound known in concentration was added. The cells were cultured at 37° C. for 15 minutes. LPS (lipopolysaccharide, SIMGA, L2880) was added such that the final concentrations of them became 50 ng/mL. The cells were cultured at 37° C. for 2 hours. The supernatant was collected and the concentration of TNF-α was measured by ELISA (DuoSet ELISA human TNF-α, R&D Systems, DY201). The concentration of TNF-α was plotted against the logarithm of the concentration of the test compound, and the IC50 value was calculated by sigmoidal Emax model nonlinear regression analysis.

[3] = system: IL-1β production in THP-1 cells (LPS and ATP; NLRP3 inflammasome activation); assay: THP-1 IL-1β production inhibitory test; type: cell-based, human; conditions: read-out: IC50 (nM), IL-1β production
Method in brief: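 THP-1 cells were differentiated with 50 ng/mL PMA for 2 days, then held 15 min at 37 °C. Cells were stimulated with 50 ng/mL LPS plus 5 mM ATP for 2 h, and supernatant IL-1β was measured by ELISA. IC50 came from sigmoidal Emax nonlinear regression.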

[4] = biological target: human Ether-a-go-go Related Gene (hERG) channel (Homo sapiens, UniProt Q12809); assay: Safety pharmacological test: hERG channel inhibitory effect; type: biochemical
Chain of human Ether-a-go-go Related Gene (hERG) channel (Q12809 whole entry): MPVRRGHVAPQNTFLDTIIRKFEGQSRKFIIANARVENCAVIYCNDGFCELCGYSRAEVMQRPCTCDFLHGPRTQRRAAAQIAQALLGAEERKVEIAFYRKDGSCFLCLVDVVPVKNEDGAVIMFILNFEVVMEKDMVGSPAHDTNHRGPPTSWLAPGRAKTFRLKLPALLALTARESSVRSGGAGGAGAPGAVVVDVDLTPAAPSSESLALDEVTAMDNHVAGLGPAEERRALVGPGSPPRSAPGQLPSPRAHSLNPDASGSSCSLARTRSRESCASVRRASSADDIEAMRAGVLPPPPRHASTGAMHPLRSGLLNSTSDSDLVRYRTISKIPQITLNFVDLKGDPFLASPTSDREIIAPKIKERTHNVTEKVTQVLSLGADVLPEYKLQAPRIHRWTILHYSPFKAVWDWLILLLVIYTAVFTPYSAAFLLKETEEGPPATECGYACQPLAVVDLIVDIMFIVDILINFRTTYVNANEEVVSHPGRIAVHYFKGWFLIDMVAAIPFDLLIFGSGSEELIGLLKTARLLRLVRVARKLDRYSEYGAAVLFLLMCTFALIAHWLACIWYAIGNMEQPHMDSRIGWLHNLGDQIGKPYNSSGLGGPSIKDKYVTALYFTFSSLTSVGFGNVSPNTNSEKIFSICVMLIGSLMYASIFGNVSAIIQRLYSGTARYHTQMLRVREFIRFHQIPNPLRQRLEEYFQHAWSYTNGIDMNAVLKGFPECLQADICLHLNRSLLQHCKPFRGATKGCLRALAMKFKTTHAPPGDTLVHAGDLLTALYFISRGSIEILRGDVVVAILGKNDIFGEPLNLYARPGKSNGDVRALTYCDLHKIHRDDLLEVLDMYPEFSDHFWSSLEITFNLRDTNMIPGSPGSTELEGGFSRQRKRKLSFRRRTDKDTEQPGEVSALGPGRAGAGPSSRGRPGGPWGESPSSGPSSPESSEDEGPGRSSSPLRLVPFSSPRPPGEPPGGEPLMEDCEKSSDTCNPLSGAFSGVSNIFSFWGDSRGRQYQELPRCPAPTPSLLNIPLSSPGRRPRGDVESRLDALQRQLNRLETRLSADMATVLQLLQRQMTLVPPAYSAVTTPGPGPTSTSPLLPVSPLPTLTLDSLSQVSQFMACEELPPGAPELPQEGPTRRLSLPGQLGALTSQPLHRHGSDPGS
Description: Safety Pharmacological Test
As a safety pharmacological test, the human Ether-a-go-go Related Gene (hereinafter referred to as hERG) channel inhibitory effect was evaluated. The hERG channel inhibitory effect was evaluated using a modified method described in Combinatorial Chemistry & High Throughput Screening, 12, 1, 78-95 (2009).

3T3 NRU phototoxicity = assay: In vitro phototoxicity test (3T3 NRU); type: cell-based; conditions: ICH S10 / OECD 432 in vitro 3T3 NRU phototoxicity test
From the text: In Vitro Phototoxicity Test
The evaluation of in vitro phototoxicity tests was based on ICH S10: Guidelines for Evaluation of Phototoxicity of Drugs (Notification No. 0521-1) and OECD guideline for testing of chemicals 432: In vitro 3T3 NRU phototoxicity test, 2004, which was described in the OECD report.

[5] = Homo sapiens, THP-1, 2 h, PMA-differentiated THP-1 cells, LPS 50 ng/mL and ATP 5 mM, 2 hours, ELISA

Compound: COc1ccc(-c2nnc(N[C@@H]3CCCC[C@H]3O)nc2C)c(O)c1 [Ex59]
- suppression rate of IL-1β p17 relative to the solvent-administered group ([1]; Dose 0.3 mg/kg): 45%
- suppression rate of IL-1β p17 relative to the solvent-administered group ([1]; Dose 1 mg/kg): 54%
- suppression rate of IL-1β p17 relative to the solvent-administered group ([1]; Dose 3 mg/kg): 85%

Compound: Cc1nc(N[C@@H]2CCC[C@H](O)C2)nnc1-c1ccc(C(F)(F)F)cc1O [Ex75]
- suppression rate of IL-1β p17 relative to the solvent-administered group ([1]; Dose 0.3 mg/kg): 12%
- suppression rate of IL-1β p17 relative to the solvent-administered group ([1]; Dose 1 mg/kg): 73%
- suppression rate of IL-1β p17 relative to the solvent-administered group ([1]; Dose 3 mg/kg): 100%

Compound: Cc1nc(N[C@@H]2CCCC[C@H]2O)nnc1-c1ccc(OC(F)F)cc1O [Ex131]
- suppression rate of IL-1β p17 relative to the solvent-administered group ([1]; Dose 0.3 mg/kg): −33%
- suppression rate of IL-1β p17 relative to the solvent-administered group ([1]; Dose 1 mg/kg): −54%
- suppression rate of IL-1β p17 relative to the solvent-administered group ([1]; Dose 3 mg/kg): 61%

Compound: Cc1nc(N[C@@H]2CCCC[C@H]2N)nnc1-c1ccc(C(F)(F)F)cc1O [Ex132]
- suppression rate of IL-1β p17 relative to the solvent-administered group ([1]; Dose 0.3 mg/kg): −3.7%^
- suppression rate of IL-1β p17 relative to the solvent-administered group ([1]; Dose 1 mg/kg): 88%
- suppression rate of IL-1β p17 relative to the solvent-administered group ([1]; Dose 3 mg/kg): 88%

Compound: Cc1nc(N[C@@H]2CCCN(C)C2)nnc1-c1ccc(C(F)(F)F)cc1O [Ex164]
- suppression rate of IL-1β p17 relative to the solvent-administered group ([1]; Dose 0.3 mg/kg): 67%
- suppression rate of IL-1β p17 relative to the solvent-administered group ([1]; Dose 1 mg/kg): 81%
- suppression rate of IL-1β p17 relative to the solvent-administered group ([1]; Dose 3 mg/kg): 80%

Compound: Cc1nc(N[C@@H]2CCOC[C@H]2O)nnc1-c1ccc(Cl)cc1O [Example 31, (3S,4R)-4-{[6-(4-chloro-2-hydroxyphenyl)-5-methyl-1,2,4-triazin-3-yl]amino}oxan-3-ol]
- IC50 [2]: ≥ 10000 nM
- IC50 [3, 5]: 25 nM

Compound: COc1ccc(-c2nnc(N[C@@H]3CCCC[C@H]3O)nc2C)c(O)c1 [Example 59, 2-(3-{[(1R,2R)-2-hydroxycyclohexyl]amino}-5-methyl-1,2,4-triazin-6-yl)-5-methoxyphenol]
- IC50 [4]: ≥ 10000 nM
- phototoxic effect (3T3 NRU phototoxicity): no phototoxic effect
- IC50 [2]: ≥ 10000 nM
- IC50 [3, 5]: 14 nM

Compound: Cc1nc(N[C@@H]2CCCN(C3CC3)C2)nnc1-c1ccc(C(F)(F)F)cc1O [Example 73, 2-(3-{[(3R)-1-cyclopropylpiperidin-3-yl]amino}-5-methyl-1,2,4-triazin-6-yl)-5-(trifluoromethyl)phenol]
- IC50 [2]: ≥ 10000 nM
- IC50 [3, 5]: 1.3 nM

Compound: Cc1nc(N[C@@H]2CCC[C@H](O)C2)nnc1-c1ccc(C(F)(F)F)cc1O [Example 75, 2-(3-{[(1R,3S)-3-hydroxycyclohexyl]amino}-5-methyl-1,2,4-triazin-6-yl)-5-(trifluoromethyl)phenol]
- IC50 [4]: ≥ 10000 nM
- phototoxic effect (3T3 NRU phototoxicity): no phototoxic effect
- IC50 [2]: ≥ 10000 nM
- IC50 [3, 5]: 6.5 nM

Compound: CC1(O)CC(Nc2nnc(-c3ccc(C(F)(F)F)cc3O)c(C3CC3)n2)C1 (stereo not drawn) [Example 108, 2-(5-cyclopropyl-3-{[(1s,3s)-3-hydroxy-3-methylcyclobutyl]amino}-1,2,4-triazin-6-yl)-5-(trifluoromethyl)phenol]
- IC50 [2]: ≥ 10000 nM
- IC50 [3, 5]: 21 nM

Compound: Cc1nc(N[C@@H]2CCCC[C@H]2O)nnc1-c1ccc(OC(F)F)cc1O [Example 131, 5-(difluoromethoxy)-2-(3-{[(1R,2R)-2-hydroxycyclohexyl]amino}-5-methyl-1,2,4-triazin-6-yl)phenol]
- IC50 [4]: ≥ 10000 nM
- phototoxic effect (3T3 NRU phototoxicity): no phototoxic effect
- IC50 [2]: ≥ 10000 nM
- IC50 [3, 5]: 9.5 nM

Compound: Cc1nc(NC[C@H]2CNCCO2)nnc1-c1ccc(C(F)(F)F)cc1O [Example 141, 2-[5-methyl-3-({[(2R)-morpholin-2-yl]methyl}amino)-1,2,4-triazin-6-yl]-5-(trifluoromethyl)phenol]
- IC50 [2]: ≥ 10000 nM
- IC50 [3, 5]: 470 nM

Compound: Cc1nc(N[C@@H]2CCCN(CCC#N)C2)nnc1-c1ccc(C(F)(F)F)cc1O [Example 181, 3-[(3R)-3-({6-[2-hydroxy-4-(trifluoromethyl)phenyl]-5-methyl-1,2,4-triazin-3-yl}amino)piperidin-1-yl]propanenitrile]
- IC50 [3, 5]: 12 nM

Compound: Cc1nc(N[C@@H]2CC[C@H](C(=O)O)C2)nnc1-c1ccc(C(F)(F)F)cc1O [Example 182, (1S,3R)-3-({6-[2-hydroxy-4-(trifluoromethyl)phenyl]-5-methyl-1,2,4-triazin-3-yl}amino)cyclopentane-1-carboxylic acid]
- IC50 [3, 5]: 67 nM

Compound: COc1ccc(-c2nnc(N[C@@H]3CCCC[C@H]3O)nc2C)c(O)c1 [Example 184, 2-(3-{[(1R,2R)-2-hydroxycyclohexyl]amino}-5-methyl-1,2,4-triazin-6-yl)-5-methoxyphenol monohydrochloride]
- IC50 ([3]; Homo sapiens, THP-1, 2 h): 5.8 nM

Compound: Cc1nc(N[C@@H]2CCC[C@H](O)C2)nnc1-c1ccc(C(F)(F)F)cc1O [Example 185, 2-(3-{[(1R,3S)-3-hydroxycyclohexyl]amino}-5-methyl-1,2,4-triazin-6-yl)-5-(trifluoromethyl)phenol monohydrochloride]
- IC50 ([3]; Homo sapiens, THP-1, 2 h): 5.2 nM

Compound: Cc1nc(N[C@@H]2CCCC[C@H]2O)nnc1-c1ccc(OC(F)F)cc1O [Example 186, 5-(difluoromethoxy)-2-(3-{[(1R,2R)-2-hydroxycyclohexyl]amino}-5-methyl-1,2,4-triazin-6-yl)phenol monohydrochloride]
- IC50 ([3]; Homo sapiens, THP-1, 2 h): 11 nM

Compound: Cc1nc(N[C@@H]2CCCN(C)C2)nnc1-c1ccc(C(F)(F)F)cc1O [Example 187, 2-(5-methyl-3-{[(3R)-1-methylpiperidin-3-yl]amino}-1,2,4-triazin-6-yl)-5-(trifluoromethyl)phenol dihydrochloride]
- IC50 [3, 5]: 1.3 nM

Now from value to compound, other results behind:

- IC50 [2]: ≥ 10000 nM
- IC50 [3, 5]: 10 nM
Compound: Cc1nc(N[C@@H]2CCCC[C@H]2O)nnc1-c1ccc(OC(F)(F)F)cc1O [Example 27, 2-(3-{[(1R,2R)-2-hydroxycyclohexyl]amino}-5-methyl-1,2,4-triazin-6-yl)-5-(trifluoromethoxy)phenol]

- IC50 [2]: ≥ 10000 nM
- IC50 [3, 5]: 15 nM
Compound: Cc1nc(N[C@@H]2CCCC[C@H]2N)nnc1-c1ccc(C(F)(F)F)cc1O [Example 132, 2-(3-{[(1R,2R)-2-aminocyclohexyl]amino}-5-methyl-1,2,4-triazin-6-yl)-5-(trifluoromethyl)phenol]
- IC50 [4]: ≥ 10000 nM
- phototoxic effect (3T3 NRU phototoxicity): no phototoxic effect

- IC50 [2]: ≥ 10000 nM
- IC50 ([3]; PMA-differentiated THP-1 cells, LPS 50 ng/mL and ATP 5 mM, 2 hours, ELISA): 1.5 nM
Compound: Cc1nc(N[C@@H]2CCCN(C)C2)nnc1-c1ccc(C(F)(F)F)cc1O [Example 164]
- IC50 [4]: ≥ 10000 nM
- phototoxic effect (3T3 NRU phototoxicity): no phototoxic effect

- IC50 [2]: ≥ 10000 nM
- IC50 [3, 5]: 1.1 nM
Compound: Cc1nc(N[C@@H]2CCCN(C)C2)nnc1-c1ccc(OC(F)F)cc1O [Example 174, 5-(difluoromethoxy)-2-(5-methyl-3-{[(3R)-1-methylpiperidin-3-yl]amino}-1,2,4-triazin-6-yl)phenol]

- IC50 [3, 5]: 19 nM
Compound: Cc1nc(N[C@@H]2CCCN(C3COC3)C2)nnc1-c1ccc(C(F)(F)F)cc1O [Example 179]

- IC50 [3, 5]: 180 nM
Compound: Cc1nc(N[C@H]2CN(C)CCC2(F)F)nnc1-c1ccc(C(F)(F)F)cc1O [Example 180]

- IC50 [3, 5]: 150 nM
Compound: Cc1nc(N[C@@H]2CCCN(CC(=O)O)C2)nnc1-c1ccc(C(F)(F)F)cc1O [Example 183]

- IC50 ([3]; PMA-differentiated THP-1 cells, LPS 50 ng/mL and ATP 5 mM, 2 hours, ELISA, dihydrochloride): 21 nM
Compound: Cc1nc(N[C@@H]2CCCC[C@H]2N)nnc1-c1ccc(C(F)(F)F)cc1O [Example 188, 2-(3-{[(1R,2R)-2-aminocyclohexyl]amino}-5-methyl-1,2,4-triazin-6-yl)-5-(trifluoromethyl)phenol dihydrochloride]
